Results published in US10821115B2, “Compounds that inhibit Mcl-1 protein” (priority 2017, dated 2020).

Biological target: recombinant human Mcl-1 (residues 171-327) / Bim interaction (Homo sapiens (Human), UniProt Q07820)
Assay: biochemical
Assay type: binding
Details: 0.1 nM Mcl-1(171-327), 0.05 nM biotin-Bim (51-76); read-out: Mcl-1 HTRF IC50

recombinant human Mcl-1 (residues 171-327) / Bim interaction, sequence (Q07820 171-327): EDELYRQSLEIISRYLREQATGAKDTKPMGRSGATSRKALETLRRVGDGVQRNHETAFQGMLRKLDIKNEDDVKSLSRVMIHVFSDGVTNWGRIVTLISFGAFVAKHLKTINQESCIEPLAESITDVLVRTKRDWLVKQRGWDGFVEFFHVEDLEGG

| SMILES | IC50 [nM] |
| --- | --- |
| C[C@@H]1CS(=O)(=O)NC(=O)c2ccc3c(c2)N(C[C@@H]2CC[C@H]2[C@](O)(CN2CCN4CCOC[C@@H]4C2)CC[C@@H]1C)C[C@@]1(CCCc2cc(Cl)ccc21)CO3 [Example 405, (1S,3′R,6′R,7′S,10′S,11′S)-6-chloro-7′-((9aS)-hexahydropyrazino[2,1-c][1,4]oxazin-8(1H)-ylmethyl)-7′-hydroxy-10′,11′-dimethyl-3,4-dihydro-2H, 15′H-spiro[naphthalene-1,22′-[20]oxa[13]thia[1,14]diazatetracyclo[14.7.2.0-3,6˜.0˜19,24˜]pentacosa[16,18,24]trien]-15′-one 13′,13′-dioxide] | 0.057 |
| C[C@@H]1[C@@H](C)C/C=C/[C@@]2(CN(C)CCO2)[C@@H]2CC[C@H]2CN2C[C@@]3(CCCc4cc(Cl)ccc43)COc3ccc(cc32)C(=O)NS1(=O)=O [Example 124, (1S,3′R,6′R,7′S,8′E, 11′S,12′R)-6-chloro-4″,11′,12′-trimethyl-3,4-dihydro-2H,15′H-dispiro[naphthalene-1,22′-[20]oxa[13]thia[1,14]diazatetracyclo[14.7.2.0-3,6˜.0˜19,24˜]pentacosa[8,16,18,24]tetraene-7′,2″-[1,4]oxazinan]-15′-one 13′,13′-dioxide] | 0.646 |
| CCO[C@]1(CN2CCN(C(C)C)[C@H](C)C2)CCC[C@H](C)[C@@H](CCOC)S(=O)(=O)NC(=O)c2ccc3c(c2)N(C[C@@H]2CC[C@H]21)C[C@@]1(CCCc2cc(Cl)ccc21)CO3 [Example 519, (1S,3′R,6′R,7′R,11′S,12′R)-6-chloro-7′-ethoxy-12′-(2-methoxyethyl)-11′-methyl-7′-(((3R)-3-methyl-4-(2-propanyl)-1-piperazinyl)methyl)-3,4-dihydro-2H, 15′H-spiro[naphthalene-1,22′-[20]oxa[13]thia[1,14]diazatetracyclo[14.7.2.0-3,6˜.0˜19,24˜]pentacosa[16,18,24]trien]-15′-one 13′,13′-dioxide] | 0.157 |

Same assay, conditions: TR-FRET, Mcl-1(171-327) / biotin-Bim (51-76); read-out: Mcl-1 HTRF IC50

| SMILES | IC50 [nM] |
| --- | --- |
| C[C@]1(O)CCCCCS(=O)(=O)NC(=O)c2ccc3c(c2)N(C[C@@H]2CC[C@H]21)C[C@@]1(CCCc2cc(Cl)ccc21)CO3 [Example 100023, (1S,3′R,6′R,7′S)-6-chloro-7′-hydroxy-7′-methyl-3,4-dihydro-2H,15′H-spiro[naphthalene-1,22′-[20]oxa[13]thia[1,14]diazatetracyclo [14.7.2.0~3,6~.0~19,24~]pentacosa[16,18,24]trien]-15′-one 13′,13′-dioxide] | 3.94 |
| C[C@@]1(O)CCCCCS(=O)(=O)NC(=O)c2ccc3c(c2)N(C[C@@H]2CC[C@H]21)C[C@@]1(CCCc2cc(Cl)ccc21)CO3 [Example 100024, (1S,3′R,6′R,7′R)-6-chloro-7′-hydroxy-7′-methyl-3,4-dihydro-2H,15′H-spiro[naphthalene-1,22′-[20]oxa[13]thia[1,14]diazatetracyclo [14.7.2.0~3,6~.0~19,24~]pentacosa[16,18,24]trien]-15′-one 13′,13′-dioxide] | 6.16 |
| C[C@@H]1[C@@H](C)C/C=C/[C@](O)(C#CCCCN2CCOCC2)[C@@H]2CC[C@H]2CN2C[C@@]3(CCCc4cc(Cl)ccc43)COc3ccc(cc32)C(=O)NS1(=O)=O [Example 100494, (1S,3′R,6′R,7′R,8′E,11′S,12′R)-6-chloro-7′-hydroxy-11′,12′-dimethyl-7′-(5-(4-morpholinyl)-1-pentyn-1-yl)-3,4-dihydro-2H,15′H-spiro[naphthalene-1,22′-[20]oxa[13]thia[1,14]diazatetracyclo [14.7.2.0~3,6~.0~19,24~]pentacosa[8,16,18,24]tetraen]-15′-one 13′,13′-dioxide] | 0.078 |
| C[C@@H]1CC[C@@H]2CC2[C@](C)(O)[C@@H]2CC[C@H]2CN2C[C@@]3(CCCc4cc(Cl)ccc43)COc3ccc(cc32)C(=O)NS1(=O)=O (stereo in doubt) [Example 100033, (1S,3′R,6′R,7′S,8′S,13′R)-6-chloro-7′-hydroxy-7′,13′-dimethyl-3,4-dihydro-2H,16′H-spiro[naphthalene-1,23′-[21]oxa[14]thia[1,15]diazapentacyclo [15.7.2.0~3,6~.0~8,10~.0~20,25~]hexacosa [17,19,25]trien]-16′-one 14′,14′-dioxide] | 2.81 |
| O=C1NS(=O)(=O)CCCCC[C@](O)(CO)[C@@H]2CC[C@H]2CN2C[C@@]3(CCCc4cc(Cl)ccc43)COc3ccc1cc32 [Example 100021, (1S,3′R,6′R,7′R)-6-chloro-7′-hydroxy-7′-(hydroxymethyl)-3,4-dihydro-2H,15′H-spiro[naphthalene-1,22′-[20]oxa[13]thia[1,14]diazatetracyclo [14.7.2.0~3,6~.0~19,24~]pentacosa[16,18,24]trien]-15′-one 13′,13′-dioxide] | 1.05 |
| CC#C[C@]1(O)CCCCCS(=O)(=O)NC(=O)c2ccc3c(c2)N(C[C@@H]2CC[C@H]21)C[C@@]1(CCCc2cc(Cl)ccc21)CO3 [Example 100025, (1S,3′R,6′R,7′S)-6-chloro-7′-hydroxy-7′-(1-propyn-1-yl)-3,4-dihydro-2H,15′H-spiro[naphthalene-1,22′-[20]oxa[13]thia[1,14]diazatetracyclo [14.7.2.0~3,6~.0~19,24~]pentacosa[16,18,24]trien]-15′-one 13′,13′-dioxide] | 2.35 |
| C[C@H]1CC/C=C/[C@](C)(O)[C@@H]2CC[C@H]2CN2C[C@@]3(CCCc4cc(Cl)ccc43)COc3ccc(cc32)C(=O)NS1(=O)=O (single isomer, unassigned) [Example 100029] | 8.73 |

Test system: human multiple myeloma cell line, OPM-2
Assay: Cell viability assay (OPM-2 10 FBS), CellTiter-Glo
Assay type: cell-based
Details: Homo sapiens, OPM-2, 16 h, read-out: OPM-2 10% FBS IC50 IP, OPM-2 cells, 10% FBS, 16 h, CellTiter-Glo
In short: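 3000 cells/well, RPMI 1640 + 10% FBS; serial compound dilutions, 16 h, 37 °C/5% CO2.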

| SMILES | IC50 [nM] |
| --- | --- |
| COC(=O)CNC(=O)C[C@]1(OC)/C=C/C[C@H](C)[C@@H](C)S(=O)(=O)NC(=O)c2ccc3c(c2)N(C[C@@H]2CC[C@H]21)C[C@@]1(CCCc2cc(Cl)ccc21)CO3 [Example 100550, methyl N-(((1S,3′R,6′R,7′S,8′E,11′S,12′R)-6-chloro-7′-methoxy-11′,12′-dimethyl-13′,13′-dioxido-15′-oxo-3,4-dihydro-2H-spiro[naphthalene-1,22′-[20]oxa[13]thia[1,14]diazatetracyclo [14.7.2.0~3,6~.0~19,24~]pentacosa[8,16,18,24]tetraen]-7′-yl)acetyl)glycinate] | 6860 |
| C=C(C)C(=O)C[C@]1(OC)/C=C/C[C@H](C)[C@@H](C)S(=O)(=O)NC(=O)c2ccc3c(c2)N(C[C@@H]2CC[C@H]21)C[C@@]1(CCCc2cc(Cl)ccc21)CO3 [Example 100476, (1S,3′R,6′R,7′S,8′E,11′S,12′R)-6-chloro-7′-methoxy-11′,12′-dimethyl-7′-(3-methyl-2-oxo-3-buten-1-yl)-3,4-dihydro-2H,15′H-spiro[naphthalene-1,22′-[20]oxa[13]thia[1,14]diazatetracyclo [14.7.2.0~3,6~.0~19,24~]pentacosa[8,16,18,24]tetraen]-15′-one 13′,13′-dioxide] | 1340 |
| CO[C@@]1(CC(=O)NC(C)(C)C(=O)O)/C=C/C[C@H](C)[C@@H](C)S(=O)(=O)NC(=O)c2ccc3c(c2)N(C[C@@H]2CC[C@H]21)C[C@@]1(CCCc2cc(Cl)ccc21)CO3 [Example 100546, N-(((1S,3′R,6′R,7′S,8′E,11′S,12′R)-6-chloro-7′-methoxy-11′,12′-dimethyl-13′,13′-dioxido-15′-oxo-3,4-dihydro-2H-spiro[naphthalene-1,22′-[20]oxa[13]thia[1,14]diazatetracyclo [14.7.2.0~3,6~.0~19,24~]pentacosa[8,16,18,24]tetraen]-7′-yl)acetyl)-2-methylalanine] | 440 |

Same assay, conditions: Homo sapiens, OPM-2, 16 h, read-out: OPM-2 10% FBS IC50 IP, OPM-2 cells, 10% FBS, 16 h incubation

| SMILES | IC50 [nM] |
| --- | --- |
| CO[C@@]1(CN2CCN3CCN(S(C)(=O)=O)C[C@@H]3C2)/C=C/C[C@H](C)[C@@H](C)S(=O)(=O)NC(=O)c2ccc3c(c2)N(C[C@@H]2CC[C@H]21)C[C@@]1(CCCc2cc(Cl)ccc21)CO3 [Example 228] | 93.1 |
| CCO[C@]1(CN2CCN3CCCC[C@@H]3C2)/C=C/C[C@H](C)[C@@H](CCOC)S(=O)(=O)NC(=O)c2ccc3c(c2)N(C[C@@H]2CC[C@H]21)C[C@@]1(CCCc2cc(Cl)ccc21)CO3 [Example 15, (1S,3′R,6′R,7′R,8′E,11′S,12′R)-6-chloro-7′-ethoxy-12′-(2-methoxyethyl)-11′-methyl-7′-((9aR)-octahydro-2H-pyrido[1,2-a]pyrazin-2-ylmethyl)-3,4-dihydro-2H,15′H-spiro[naphthalene-1,22′-[20]oxa[13]thia[1,14]diazatetracyclo[14.7.2.0-3,6˜.0˜19,24˜]pentacosa[8,16,18,24]tetraen]-15′-one 13′,13′-dioxide] | 71 |

Same assay, conditions: read-out: OPM-2 10% FBS IC50 IP; OPM-2 cells, 10% FBS, 16 h, CellTiter-Glo

| SMILES | IC50 [nM] |
| --- | --- |
| C[C@@H]1[C@@H](C)C/C=C/[C@@](O)(C#C[Si](C)(C)C)[C@@H]2CC[C@H]2CN2C[C@@]3(CCCc4cc(Cl)ccc43)COc3ccc(cc32)C(=O)NS1(=O)=O [Example 100243, (1S,3′R,6′R,7′S,8′E,11′S,12′R)-6-chloro-7′-hydroxy-11′,12′-dimethyl-7′-((trimethylsilyl)ethynyl)-3,4-dihydro-2H,15′H-spiro[naphthalene-1,22′-[20]oxa[13]thia[1,14]diazatetracyclo [14.7.2.0~3,6~.0~19,24~]pentacosa[8,16,18,24]tetraen]-15′-one 13′,13′-dioxide] | 8670 |

Same assay, conditions: read-out: OPM-2 10% FBS IC50 IP; OPM-2 cells, 10% FBS, 16 h incubation

| SMILES | IC50 [nM] |
| --- | --- |
| CO[C@]1(CN2CCN3CCS(=O)(=O)C[C@@H]3C2)/C=C/C[C@H](C)[C@@H](C)S(=O)(=O)NC(=O)c2ccc3c(c2)N(C[C@@H]2CC[C@H]21)C[C@@]1(CCCc2cc(Cl)ccc21)CO3 [Example 215] | 107 |
| C[C@@H]1[C@@H](C)C/C=C/C(O)(CN2CCN3CCCC[C@@H]3C2)[C@@H]2CC[C@H]2CN2C[C@@]3(CCCc4cc(Cl)ccc43)COc3ccc(cc32)C(=O)NS1(=O)=O (single isomer, unassigned) [Example 242] | 791 |
